Measurements as given in patent US20100104675A1, “Method Of Treating Demyelinating Central Nervous System Diseases” (priority 2008, published 2010).

Experiments:
[1] = test system: PLP139-151-immunized SJL mice (EAE); assay: Actively induced EAE in PLP139-151-immunized SJL/J mice, oral treatment; format: in vivo
[2] = test system: rheumatoid arthritis patients; settings: cited from earlier work
[3] = Example 2, Table 2, TwHF 12.5 mg/kg/d from day 0, triptolide 10 μg/kg/d from day 8, oral
[4] = Example 2, TwHF 12.5 mg/kg/d, triptolide 10 μg/kg/d, vs control

SMILES | Duration (mean duration of disease) [1, 3] [days] | Group score (EAE clinical score 0-6) [1, 3] | Onset [1, 3] | reduction in the duration of the disease [1, 4] [%] | reduction in the group score [1, 4] [%] | ACR20 ([2]; 24 weeks of the Phase 2 trial) [%] | patients with an ACR20 response ([2]; at 2 weeks) [%]
CC(C)[C@]12O[C@H]1[C@@H]1O[C@]13[C@]1(O[C@H]1C[C@H]1C4=C(CC[C@@]13C)C(=O)OC4)[C@@H]2O [Triptolide, triptolide] | 7.6 ± 1 | 0.88 ± 0.09 | 13.9 ± 0.95 | 26.2 | 52.5 |  | 
O=C(O)c1cc(/N=N/c2ccc(S(=O)(=O)Nc3ccccn3)cc2)ccc1O [sulfasalazine] |  |  |  |  |  | 21.3 | 9.8
